Counter-ions that a name gives are not always drawn.

These results are taken from patent US11571423B2, “Small molecule modulators of human sting” (Curadev Pharma Limited, priority 2017, dated 2023).

Sequence of hSTING(R232) (Q86WV6 whole entry H232R): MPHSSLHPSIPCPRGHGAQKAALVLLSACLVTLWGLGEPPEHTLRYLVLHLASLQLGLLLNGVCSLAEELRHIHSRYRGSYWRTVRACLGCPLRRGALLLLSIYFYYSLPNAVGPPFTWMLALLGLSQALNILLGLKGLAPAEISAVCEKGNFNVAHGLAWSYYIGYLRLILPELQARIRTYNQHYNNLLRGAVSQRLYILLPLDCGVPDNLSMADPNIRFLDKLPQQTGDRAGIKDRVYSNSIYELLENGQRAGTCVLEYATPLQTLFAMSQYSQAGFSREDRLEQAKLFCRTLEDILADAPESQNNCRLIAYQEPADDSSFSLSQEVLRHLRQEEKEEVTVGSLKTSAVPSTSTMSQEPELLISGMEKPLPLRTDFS

This experiment deals with hSTING(R232) (Homo sapiens, UniProt Q86WV6, H232R). As to the kind of experiment: Luciferase reporter assay in HEK293T-hSTING-Luciferase cells, R232 (wild type) human STING. It counts as cell-based. The note with it: 20 hr stimulation, read-out: R232 human activity (EC50 range). The text has this:
Stable Cell Line Generation • a) Stable STING expressing cells—Stable HEK293T STING-expressing cell lines were generated using plasmids purchased from Invivogen, CA, USA, that contain STING cDNA cloned into the pUNO-1 vector under hEF1-HTLV promoter and containing the Blasticidin selection cassette. The plasmids hSTING(R232), hSTING(H232), hSTING(HAQ) were directly procured from Invivogen while hSTING (AQ) and hSTING (Q) were derived from hSTING(HAQ) and hSTING (R232) plasmids respectively by using a PCR based site directed mutagenesis method. These vectors were individually transfected into HEK293T cells using Lipofectamine (Invitrogen) and transfected cells were selected under Blasticidin selection. These transfected cells were further subjected to clonal selection using the limiting dilution method to obtain clonally pure populations of HEK cells transfected with each of the above mentioned human STING variants. Only those clones were selected in which ligand independent activation of STING was minimal. • b) Stable Luciferase reporter gene expressing cells—Stable HEK293T Luciferase reporter gene expressing cell lines were generated using pCDNA4 plasmids under an IRF-inducible promoter. This promoter is comprised of five tandem interferon-stimulated response elements (ISRE) fused to an ISG54 minimal promoter. This vector was transfected into HEK293T cells using Lipofectamine (Invitrogen) and transfected cells were selected under Zeocin selection. These transfected cells were further subjected to clonal selection using the limiting dilution method to obtain clonally pure populations of HEK cells transfected the Luciferase reporter construct. Only those clones were selected in which ligand independent induction of luciferase was minimal.
5×10^5 clonally selected HEK293T-hSTING-Luciferase cells were seeded in 384-well plates in growth medium and stimulated with novel compounds. After 20 hr of stimulation supernatant were removed and secretary reporter gene activity were measured using the Quanti-Luc detection system (Invivogen) on a Spectramax i3X luminometer.
In the tables below, EC50 value ranges for exemplary compounds are given.
All compounds were first tested in a primary screen to obtain a ‘fold-induction’ over baseline levels of protein activity.
On the technique in general: In a reporter assay the amount or activity of a reporter protein is the signal.
As to `Cc1cc(CN2C(=O)N(C)C(C)c3ccc(C(=O)NCc4c(F)cc(F)cc4F)cc32)ccn1` (stereo not shown) [Example 198, 3,4-dimethyl-1-((2-methylpyridin-4-yl)methyl)-2-oxo-N-(2,4,6-trifluorobenzyl)-1,2,3,4-tetrahydroquinazoline-7-carboxamide], the EC50 (in general, the concentration needed to bring the measured effect to its halfway point) is below 1 µM.
As for `CN1Cc2ccc(C(=O)NCc3ccc(F)cc3F)cc2N(Cc2cc(F)cc(F)c2)C1=O` [Example 4, N-(2,4-difluorobenzyl)-1-(3,5-difluorobenzyl)-3-methyl-2-oxo-1,2,3,4-tetrahydroquinazoline-7-carboxamide], the EC50 was below 1 µM.
As to `C[C@H]1c2ccc(C(=O)NCc3c(F)cc(F)cc3F)cc2N(Cc2c(F)cc(OCCN)cc2F)C(=O)N1C` [Example 292, (S)-1-(4-(2-aminoethoxy)-2,6-difluorobenzyl)-3,4-dimethyl-2-oxo-N-(2,4,6-trifluorobenzyl)-1,2,3,4-tetrahydroquinazoline-7-carboxamide hydrochloride], the EC50 is below 1 µM.
In the case of `CN1Cc2ncc(C(=O)NCc3cc4ccccc4o3)cc2N(Cc2c(F)cccc2Cl)C1=O` [Example 73, N-(benzofuran-2-ylmethyl)-1-(2-chloro-6-fluorobenzyl)-3-methyl-2-oxo-1,2,3,4-tetrahydropyrido[3,2-d]pyrimidine-7-carboxamide], the EC50 was above 10 µM.
The value for `CC1c2ccc(C(=O)NCc3c(F)cc(F)cc3F)cc2N(Cc2ccc(O)cc2F)C(=O)N1C` (stereo not shown) [Example 181, 1-(2-fluoro-4-hydroxybenzyl)-3,4-dimethyl-2-oxo-N-(2,4,6-trifluorobenzyl)-1,2,3,4-tetrahydroquinazoline-7-carboxamide] was below 1 µM.
As for `CN1Cc2ncc(C(=O)NCc3c(F)cc(F)cc3F)cc2N(Cc2c(F)cccc2Cl)C1=O` [Example 71, 1-(2-chloro-6-fluorobenzyl)-3-methyl-2-oxo-N-(2,4,6-trifluorobenzyl)-1,2,3,4-tetrahydropyrido[3,2-d]pyrimidine-7-carboxamide], the EC50 was in the range of 1 to 10 µM.
For the molecule `CC1c2ccc(C(=O)NCc3ccc(F)cc3F)cc2N(Cc2ccccc2F)C(=O)N1C` (stereo not shown) [Example 197, N-(2,4-difluorobenzyl)-1-(2-fluorobenzyl)-3,4-dimethyl-2-oxo-1,2,3,4-tetrahydroquinazoline-7-carboxamide], the EC50 was below 1 µM.
Regarding `CC1c2ccc(C(=O)NCc3c(F)cc(F)cc3F)cc2N(Cc2ccc(Cl)cc2F)C(=O)N1C` (stereo not shown) [Example 219, 1-(4-chloro-2-fluorobenzyl)-3,4-dimethyl-2-oxo-N-(2,4,6-trifluorobenzyl)-1,2,3,4-tetrahydroquinazoline-7-carboxamide], the EC50 is below 1 µM.
Consider `CN1Cc2ccc(C(=O)NCc3c(F)cc(F)cc3F)cc2N(Cc2c(F)cccc2Br)C1=O` [Example 11, 1-(2-bromo-6-fluorobenzyl)-3-methyl-2-oxo-N-(2,4,6-trifluorobenzyl)-1,2,3,4-tetrahydroquinazoline-7-carboxamide], for which the EC50 is below 1 µM.
On to `CN1CCN(c2cccc(CNC(=O)c3ccc4c(c3)N(Cc3c(F)cccc3Cl)C(=O)N(C)C4)c2)CC1` [Example 31], for which the EC50 is above 10 µM.
Take `Cc1ccc(CNC(=O)c2ccc3c(c2)N(Cc2cc(F)cc(F)c2)C(=O)N(C)C3)o1` [Example 2, 1-(3,5-difluorobenzyl)-3-methyl-N-((5-methylfuran-2-yl)methyl)-2-oxo-1,2,3,4-tetrahydroquinazoline-7-carboxamide]: the EC50 was above 10 µM.
On to `COc1cccc(F)c1CNC(=O)c1ccc2c(c1)N(Cc1c(F)cccc1Cl)C(=O)N(C)C2` [Example 41, 1-(2-chloro-6-fluorobenzyl)-N-(2-fluoro-6-methoxybenzyl)-3-methyl-2-oxo-1,2,3,4-tetrahydroquinazoline-7-carboxamide], for which the EC50 is above 10 µM.
In the case of `Cn1cnc(N2Cc3ccc(C(=O)NCc4c(F)cc(F)cc4F)cc3N(Cc3c(F)cccc3Cl)C2=O)c1` [Example 34, 1-(2-chloro-6-fluorobenzyl)-3-(1-methyl-1H-imidazol-4-yl)-2-oxo-N-(2,4,6-trifluorobenzyl)-1,2,3,4-tetrahydroquinazoline-7-carboxamide], the EC50 is above 10 µM.
